US20060148714A1, “Therapeutic peptide-based constructs” (priority 1999, published 2006)
Values after ≈ are worked out from the molar mass of the structure shown. Where a SMILES comes first, the peptide text is derived from it. Where no end group is shown, it is not given here. [ ]: non-standard residue; d: D form. The star is where a group is joined. 2‑biphenylenecarbonyl = O=C(c1ccc2c(c1)-c1ccccc1-2)*; Acetyl(2-naphthyl) = O=C(Cc1ccc2ccccc2c1)*; d1Nal = N[C@H](Cc1cccc2ccccc12)C(=O)O

Columns and labels:
[1] = tested on: retinal endothelial cells; test: Retinal endothelial cell growth stimulated by VEGF (DNA content); assay type: cell-based, bovine; settings: 5 μg/mL and 15 μg/mL
Experimental: In these experiments, peptide-based constructs are tested for their activity on the action of VEGF, bFGF, IGF-1 and conditioned media (hypoxia and hyperglycemia) on the in vitro growth and migration of retinal pigmented epithelial cells (RPE), retinal microvessel pericytes, and retinal endothelial cells. Effects are evaluated on gene expression under hypoxic or […] conditions. In additional experiments, the effects of such constructs are characterized in vivo on the neovascular responses to hyperoxia in the retina of the neonatal mouse.
For the in vitro culture experiments, retinal microvessel pericytes, retinal endothelial cells, and retinal pigmented epithelial cells (RPE) are cultured from bovine retina. Dose responses and time course for growth and migration as stimulated by VEGF, bFGF, and IGF-1 are performed. For example, retinal endothelial cell growth as stimulated by VEGF was inhibited with 5 μg/mL and 15 μg/mL XMP.679 as measured by DNA content (ng/cell well). […] When the dose responses of these growth factors and conditioned media are determined, the effect of peptide-based constructs independently, and in combination with the growth factors described above, are tested in growth and migration assays.

[2] = tested on: Factor Xa neutralization by ATIII/heparin complexes; test: Chromostrate heparin anti-Factor Xa assay (heparin neutralization); assay type: biochemical; settings: absorbance at 405 nm
Experimental: A Chromostrate™ assay was used to determine the effect of peptide-based constructs, including derivatized constructs, and the effect protamine sulfate (as a positive control) on Factor Xa neutralization by ATIII/heparin complexes. The assay was conducted using a Chromostrate™ heparin anti-Factor Xa assay kit (Organon Teknika Corp., Durham, N.C.). Heparin concentration was varied so that a heparin standard curve was generated. The assay measured the potentiating effect of heparin on anti-Xa activity in vitro. Solution containing heparin is incubated in the presence of ATIII with an excess of Factor Xa, forming an ATIII-Heparin-Xa complex. The remaining Xa catalyzes the release of p-nitroaniline (pNA) from the chromogenic substrate. The release of p-nitroaniline is measured at 405 nm. The absorbance obtained in inversely porportional to the concentration of heparin in the sample.
Reagents for the assay are prepared as follows. Heparin, peptide-based constructs and protamine sulfate stocks are made in saline. Stock solutions are approximately 1 mg/mL=1 μg/μL. Factor Xa reagent and substrate reagent are reconstituted with 2.0 mL purified water. Antithrombin III (ATIII) reagent is reconstituted with 1.0 mL purified water. The assay is performed in 96 well microtiter plates. Assay components are added to the microtiter wells as follows: 12.5 μl of heparin (from 0 to 10 U/mL), 25 μl of construct or protamine sulfate, 12.5 μL of ATIII (0.5 PEU/mL), 25 μL of bovine Factor Xa (14 nKat/mL), 25 μL substrate (3 μmoles/mL). The reaction is allowed to proceed for 20 minutes and then 25 μL of 0.1 M acetic acid is added. The color reaction is quantitated on a microplate reader at 405 nm. Constructs that neutralize heparin show an increase in the absorbance at 405 nm. Protamine is used as a positive control and its activity is designated as 100%. The percent (%) heparin neutralization for each peptide construct is calculated relative to the neutralization by protamine (100%), and shown in Table IV.

[3] = tested on: E. coli (J5 and 0111 B4), Staphylococcus aureus and Candida albicans; test: Broth and/or radial diffusion antimicrobial assays; assay type: cell-based
Excerpt: Assays useful for testing a variety of biological activities of BPI protein products, including BPI-derived peptides, are described in co-owned U.S. Pat. Nos. 5,733,872; 5,763,567; 5,652,332; and 5,856,438 and corresponding PCT Publication Nos. WO 94/20532 (PCT/US94/02465) and WO 95/19372 (PCT/US94/10427) and U.S. Pat. No. 5,858,974 and corresponding PCT Publications Nos. WO 96/08509 (PCT/US95/09262) and WO 97/04008 (PCT/US96/03845), incorporated herein by reference. These activities include antimicrobial (including antibacterial and antifungal), LPS binding, LPS neutralization and additional assays of heparin binding as well as heparin neutralization.

[4] = tested on: human umbilical vein endothelial cells (HUVEC); assay type: cell-based
Experimental: Briefly, human umbilical vein endothelial cells (HUVEC) were cultured in EGM-2 medium (Clonetics Corp., San Diego, Calif.), harvested and plated onto a 96-well culture plate. After 24 hours of quiescence, the cells were co-cultured with various peptide-based constricts in the presence of growth factors for 72 hours to test their activity. Cell proliferation was quantitated by tritiated thymidine incorporation into DNA and was expressed in counts per minute (cpm).
Details of the experimental procedures were as follows: HUVEC cells were cultured in EGM-2 media from Clonetics Corp., a subsidiary of BioWhittaker, Inc., San Diego, Calif. [EGM-2 is Endothelial Cell Basal Medium-2 (EMB-2) supplemented with growth factors (hFGF-B, VEGF, IGF-1, hEGF) ascorbic acid, heparin, GA-1000 and 2% FBS), in T75 flasks until confluent (˜4-7 days). Cells were harvested by trypsinizing the cells using 0.025% trypsin/EDTA for 5 minutes. To stop the reaction, 2-5% FBS was added. The cells were centrifuged and washed 3 times using Hank's Balanced Salt Solution (HBSS) or Dulbecco's Phosphate Buffered Saline D-PBS. The pellet was then resuspended in EBM-2 supplemented with 0.1% FBS and GA-1000 was used. The cells were counted and a cell suspension was prepared at 2×10^5/mL in EBM-2 with 0.1% FBS; cells were dispensed into a 96-well flat bottomed culture plate at 0.1 mL/well (total: ˜20,000 cells/well in 0.1% FBS-EBM-2). Incubation continued at 37° C. in 5% CO2 for 20-24 hours. The next day peptide-based constructs were prepared for testing in a 96 well plate. The supernatant was aspirated from the cell-well, replaced with EBM-2 or the testing reagent at 20 μL/well. Then, 180 μL/well of 1.12% FBS-GFS were added to make a final concentration of 1% FBS-GFS in EBM-2. This aspiration and addition was done well-by-well. ^3H-thymidine (100 μCi/mL) was added at 10 μL/well (1 μCi/well, final). Incubation continued at 37° C., 5% CO2 for 72 hours. To harvest the plate, the supernatant was aspirated off from the cell-well and then 75 μL-100 μL/well of 0.025% trypsin-EDTA was added. After incubation for 8-10 minutes at room temperature in the hood, the cells were checked and 100 μL/well of 2-5% FBS-PBS was added to stop the reaction. The plate was then harvested, dried and counted using an Inotech cell harvester (Inotech Biosystems, INB-384, Sample Processing and Filter Counting System, Lansing, Mich.).

[5] = Behaviour in 1 mg/ml stock solution; assay type: physicochemical; set-up: key: b: precipitated in 1 mg/ml stock solution; settings: no IC50 given
[6] = tested on: bFGF-induced angiogenesis; test: In vivo Matrigel angiogenesis assay (hemoglobin content of excised gel); settings: 10 μg peptide construct per gel; hemoglobin of gel excised ten days after s.c. injection; C57BL/6J mice
Experimental: For these experiments, peptide-based constructs according to the invention were assayed for their ability to inhibit heparin-induced angiogenesis in vivo in mice. Basement membrane matrix (Matrigel®, Becton Dickinson Labware, Mountain View, Calif.) was thawed and maintained at 4° C. and angiogenic factors were added to the gel in the liquid state generally as described in Passaniti et al., 1992, Lab. Invest. 67: 519-528. Heparin sodium (Sigma, St. Louis, Mo.) was dissolved in sterile PBS to various concentrations ranging from 1,250-10,000 U/mL, and used in these experiments at 8,000 U/mL. Human recombinant basic fibroblast growth factor (bFGF; Sigma) was reconstituted into 1. % BSA in PBS to 25 μg/mL. A volume of 2.5 μL dissolved heparin solution and 4.0 μL recombinant bFGF were added to 0.5 mL Matrigel® mixture per mouse injection. Peptide-based constructs were added to this Matrigel® mixture at varying concentrations ranging from 0.5 to 50 μg/mL (final concentration) in 10 μL/0.5 mL Matrigel® aliquot per experimental animal. Ten μL sterile PBS was substituted for peptide-based constructs in Matrigel® aliquots injected into control animals.
Female C57BL/6J mice (Jackson Laboratory, Bar Barbor, Me.) at 6-8 weeks of age (maintained under NIH guidelines) were injected subcutaneously down the dorsal midline with 0.5 mL aliquots of Matrigel® prepared as described above. Ten days after injection, the Matrigel® gels were excised and placed in Drabkin's reagent (Sigma). Total protein and hemoglobin content can be determined for the gels stored in Drabkin's reagent after mechanical homogenization of the gels. Hemoglobin concentration was measured using Sigma Procedure #525 and reagents supplied by Sigma (St. Louis, Mo.) to be used with this procedure. If desired, total protein levels are determined using a microplate assay that is commercially embodied in a kit (DC Protein Assay, Bio-Rad, Richmond, Calif.).
Gels to be used for histological staining are formalin-fixed immediately after excision from the animals rather than being placed in Drabkin's reagent. Formalin-fixed gels are embedded in Tissue-Tek O.C.T. compound (Miles, Inc., Elkhart, Ind.) for frozen sectioning. Slides of frozen sections are stained with hematoxylin and eosin (as described by Humason, 1979, Animal Tissue Techniques, 4th Ed. W.H. Feeman & Co., San Francisco, Calif., Ch. 9, pp. 111-131). The effect of peptides are detected by microscopic examination of frozen stained sections for inhibition of angiogenesis relative to Matrigel® gel slices prepared without added peptides. The extent of angiogenesis inhibition is quantitated using the normalized amounts of hemoglobin found in BPI peptide-containing gel slices.
Data are presented as the means of triplicate determinations of hemoglobin concentrations from the excised gel (ISEM) with ten mice per group.

LPS = test: RAW cell assay of LPS neutralization; assay type: cell-based

| Molecule | cell growth by DNA content in treated VEGF-stimulated cells versus unstimulated cells [1] | retinal endothelial cell growth as stimulated by VEGF, measured by DNA content (ng/cell well) [1] | Assay A: percent heparin neutralization relative to protamine (100%) [2] | Assay B: percent heparin neutralization relative to protamine (100%) [2] | antimicrobial activity [3] | IC50 ([4]; 72 h) | precipitated in 1 mg/ml stock solution [5] | % Inhibition [6] | LPS neutralization activity (LPS) | IC50 values, additional assays ([4]; HUVEC proliferation, purified constructs, said to be comparable to Table II (μg/mL)) |
| --- | --- | --- | --- | --- | --- | --- | --- | --- | --- | --- |
| CC(C)C[C@@H](NC(=O)[C@H](N)CCCCN)C(=O)N[C@H](Cc1ccccc1)C(=O)N[C@H](CCCCN)C(=O)N[C@H](Cc1cccc2ccccc12)C(=O)N[C@H](CCC(N)=O)C(=O)N[C@H](C)C(=O)N[C@H](CCCCN)C(=O)N[C@H](Cc1cccc2ccccc12)C(=O)N[C@H](CCCCN)C(=O)NCC(N)=O [XMP.679, k-l-f-k-(naph-a)-q-a-k-(naph-a)-k-g] (H-[dK][dL][dF][dK][d1Nal][dQ][dA][dK][d1Nal][dK]G-NH2; N-terminus assumed) | comparable with that of cells not stimulated by VEGF | inhibited | 96% | 94% | highest antimicrobial activities | 6.3 ± 0.9 mg/L (≈ 4.37 µM) |  |  |  |  |
| 2-naphthylacetyl-k-l-f-r-(naph-a)-q-a-k ({Acetyl(2-naphthyl)}-[dK][dL][dF][dR][dNal][dQ][dA][dK]; not fully specified; printed as 2-naphthylacetyl-k-l-f-r-(naph-a)-q-a-k) [XMP.666] |  |  | 39% | 18% |  |  | b |  |  |  |
| 2-biphenylenecarbonyl-k-l-f-r-(naph-a)-q-a-k ({2‑biphenylenecarbonyl}-[dK][dL][dF][dR][dNal][dQ][dA][dK]; not fully specified; printed as 2-biphenylenecarbonyl-k-l-f-r-(naph-a)-q-a-k) [XMP.699] |  |  | 45% | 23% |  |  | b |  |  |  |
| CC[C@@H](C)[C@@H](NC(=O)[C@@H](CO)NC(=O)CNC(=O)[C@@H](CCCCN)NC(=O)[C@@H](Cc1cccc2ccccc12)NC(=O)[C@@H](CCCCN)NC(=O)[C@@H](C)NC(=O)[C@@H](CCC(N)=O)NC(=O)[C@@H](Cc1cccc2ccccc12)NC(=O)[C@@H](CCCNC(=N)N)NC(=O)[C@@H](Cc1ccccc1)NC(=O)[C@@H](CC(C)C)NC(=O)[C@H](N)CCCCN)C(=O)N[C@H](CCCCN)C(N)=O [XMP.624, k-l-f-r-(naph-a)-q-a-k-(naph-a)-k-g-s-i-k] (H-[dK][dL][dF][dR][d1Nal][dQ][dA][dK][d1Nal][dK]G[dS][dI][dK]-NH2) |  |  | 131% | 94% |  |  |  | 51.9% | showed activity | 4.9 ±0.5 |
